Drawing on US8378107B2, “Heteroaryl antagonists of prostaglandin D2 receptors” (Panmira Pharmaceuticals, LLC, priority 2008, dated 2013), this text covers IC50 for 13 compounds.

The assay has as its target T1, human DP2 receptor (Homo sapiens, UniProt Q9Y5Y4).
T1 construct: expressed in transfected cells; membrane preparation
T1 sequence (Q9Y5Y4 1-395): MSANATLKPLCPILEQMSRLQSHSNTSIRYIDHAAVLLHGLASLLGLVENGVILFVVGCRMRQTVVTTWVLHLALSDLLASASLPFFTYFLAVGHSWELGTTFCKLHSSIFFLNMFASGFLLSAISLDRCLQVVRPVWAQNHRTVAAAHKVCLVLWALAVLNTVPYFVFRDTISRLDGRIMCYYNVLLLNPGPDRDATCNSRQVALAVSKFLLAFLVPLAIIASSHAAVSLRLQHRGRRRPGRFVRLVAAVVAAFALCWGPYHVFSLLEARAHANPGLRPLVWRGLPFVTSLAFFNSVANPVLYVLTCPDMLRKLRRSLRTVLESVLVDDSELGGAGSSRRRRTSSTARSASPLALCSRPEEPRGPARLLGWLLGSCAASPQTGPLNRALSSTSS
The assay is described as follows: DP2/CRTH2 radioligand binding assay using [3H]PGD2. As to conditions: membranes of HEK293 cells expressing recombinant human DP2, 1 nM [3H]PGD2; read-out: hDP2. How it is done:
The ability of a compound to bind to the human DP2 receptor is assessed via a radioligand binding assay using [^3H]PGD2. HEK293 cells stably expressing recombinant human DP2 are resuspended in 10 mM Hepes, 7.4 containing 1 mM DTT, lysed and centrifuged at 75,000×g to pellet the membranes. The membranes are resuspended in 10 mM Hepes, 7.4 containing 1 mM DTT and 10% glycerol to approximately 5 mg protein/ml. Membranes (2-10 μg protein/well) are incubated in 96-well plates with 1 nM [^3H]PGD2 and test compound in Assay Buffer (50 mM Hepes, 10 mM MnCl2, 1 mM EDTA, plus or minus 0.2% human serum albumin, pH 7.4) for 60 minutes at room temperature. The reactions are terminated by rapid filtration through Whatman GF/C glass fibre filter plates. The filter plates were pre-soaked in 0.33% polyethylenimine for 30 minutes at room temperature then washed in Wash Buffer (50 mM Hepes, 0.5 M NaCl pH 7.4) prior to harvesting. After harvesting, the filter plates are washed 3 times with 1 ml cold Wash Buffer then dried. Scintillant is then added to the plates and the radioactivity retained on the filters is determined on a Packard TopCount (Perkin Elmer). Specific binding is determined as total radioactive binding minus non-specific binding in the presence of 10 μM PGD2. IC50s were determined using GraphPad prism analysis of drug titration curves.
With `CCN(Cc1nc2ccccc2cc1-c1cc(CC(=O)O)ccc1OC)C(=O)C1CC1` [Compound 2-4, (3-{2-[(Cyclopropanecarbonyl-ethyl-amino)-methyl]-quinolin-3-yl}-4-methoxy-phenyl)-acetic acid], the IC50 was less than 0.3 µM. As for `CCN(Cc1cc2ccccc2nc1-c1cc(CC(=O)O)ccc1OC)C(=O)C1CC1` [Compound 2-1, (3-{3-[(Cyclopropanecarbonyl-ethyl-amino)-methyl]-quinolin-2-yl}-4-methoxy-phenyl)-acetic acid], the IC50 was in the range of 0.3 to 1 µM. Turning to `CCN(Cc1cc(C)cnc1-c1cc(CC(=O)O)ccc1OC)C(=O)NCc1ccccc1` [Compound 1-4, {3-[3-(3-Benzyl-1-ethyl-ureidomethyl)-5-methyl-pyridin-2-yl]-4-methoxy-phenyl}-acetic acid], the IC50 is less than 0.3 µM. For the compound `CCN(Cc1cc2ccccc2nc1-c1cc(CC(=O)O)ccc1OC)C(=O)COC` [Compound 2-3, [3-(3-{[Ethyl-(2-methoxy-acetyl)-amino]-methyl}-quinolin-2-yl)-4-methoxy-phenyl]-acetic acid], the IC50 is more than 1 µM.

Consider `CCN(Cc1nc2ccccc2cc1-c1cc(CC(=O)O)ccc1OC)C(=O)COC` [Compound 2-6, [3-(2-{[Ethyl-(2-methoxy-acetyl)-amino]-methyl}-quinolin-3-yl)-4-methoxy-phenyl]-acetic acid], for which the IC50 is less than 0.3 µM. Turning to `CCN(Cc1cc(C)cnc1-c1cc(CC(=O)O)ccc1OC)C(=O)C1CC1` [Compound 1-2, (3-{3-[(Cyclopropanecarbonyl-ethyl-amino)-methyl]-5-methyl-pyridin-2-yl}-4-methoxy-phenyl)-acetic acid], the IC50 lay in the range of 0.3 to 1 µM. Consider `CCN(Cc1cc2ccccc2nc1-c1cc(CC(=O)O)ccc1OC)C(C)=O` [Compound 2-2, (3-{3-[(Acetyl-ethyl-amino)-methyl]-quinolin-2-yl}-4-methoxy-phenyl)-acetic acid], for which the IC50 was more than 1 µM. Consider `COc1ccc(CC(=O)O)cc1-c1cc2ccccc2nc1CN(Cc1ccccc1)C(C)=O` [Compound 2-7, (3-{2-[(Acetyl-benzyl-amino)-methyl]-quinolin-3-yl}-4-methoxy-phenyl)-acetic acid], for which the IC50 is less than 0.3 µM. In the case of `COc1ccc(CC(=O)O)cc1-c1cc2ccccc2nc1CN(Cc1ccccc1)C(=O)C1CC1` [Compound 2-8, (3-{2-[(Benzyl-cyclopropanecarbonyl-amino)-methyl]-quinolin-3-yl}-4-methoxy-phenyl)-acetic acid], the IC50 is less than 0.3 µM. As for `CCN(Cc1cc(C)cnc1-c1cc(CC(=O)O)ccc1OC)C(=O)CCc1ccccc1` [Compound 1-3, [3-(3-{[Ethyl-(3-phenyl-propionyl)-amino]-methyl}-5-methyl-pyridin-2-yl)-4-methoxy-phenyl]-acetic acid], the IC50 was less than 0.3 µM.

Regarding `O=C(O)CCn1c2c(c3ccccc31)C[C@H](NS(=O)(=O)c1ccc(F)cc1)CC2` [Ramatroban, reference compound], the IC50 was 0.3 to 1 µM.

`COc1ccc(CC(=O)O)cc1-c1ncccc1CNC(=O)OCc1ccccc1` [Compound 1-1, {3-[3-(Benzyloxycarbonylamino-methyl)-pyridin-2-yl]-4-methoxy-phenyl}-acetic acid]: the IC50 was more than 1 µM. Turning to `CCC(=O)N(CC)Cc1nc2ccccc2cc1-c1cc(CC(=O)O)ccc1OC` [Compound 2-5, (3-{2-[(Ethyl-propionyl-amino)-methyl]-quinolin-3-yl}-4-methoxy-phenyl)-acetic acid], the IC50 is less than 0.3 µM.
